# Assays:
# [1] = MRC5 cell proliferation counterscreen; type: cell-based; conditions: human, MRC5 cells, MRC5 EC50, cytotoxicity, human cell line
# T. cruzi = T. cruzi cell proliferation assay; type: cell-based; conditions: Trypanosoma cruzi, read-out: T. cruzi EC50, mean ± SD; n = 4
# T. brucei = T. brucei cell proliferation assay; type: cell-based, Trypanosoma brucei
SMILES,EC50 [1] [µM],other results
Cc1ccc(-c2ccc3[nH]c(=O)nc(-c4ccccc4)c3c2)cn1 [Compound 7],> 50,–
O=c1nc(-c2ccccc2)c2cc(-c3ccccc3F)ccc2[nH]1 [Compound 15],> 50,EC50 (T. cruzi): < 10 µM
Cn1nccc1-c1ccc2[nH]c(=O)nc(-c3ccccc3)c2c1 [Compound 27],> 50,–
O=c1nc(-c2ccccc2)c2cc(-c3cc[nH]n3)ccc2[nH]1 [Compound 24],> 50,–
Cc1noc(C)c1-c1ccc2[nH]c(=O)nc(-c3ccccc3)c2c1 [Compound 23],> 50,–
Cc1ccc2[nH]c(=O)nc(-c3ccccc3)c2c1 [Compound 35],> 50,–
O=c1nc(-c2ccccc2)c2cc(-c3ccncc3)ccc2[nH]1 [Compound 1],> 50,–
O=c1nc(-c2ccccc2)c2cc(-c3cccc(N4CCOCC4)c3)ccc2[nH]1 [Compound 20],> 50,–
O=c1nc(-c2ccccc2)c2cc(N3CCOCC3)ccc2[nH]1 [Compound 38],> 50,–
CNC(=O)c1cccc(-c2ccc3[nH]c(=O)nc(-c4ccccc4)c3c2)c1 [Compound 19],> 50,–
O=c1nc(-c2ccccc2)c2ccc(-c3cccc(N4CCOCC4)c3)cc2[nH]1 [Compound 31],> 50,–
O=c1nc(-c2ccccc2)c2cc(-c3ccc(C(F)(F)F)nc3)ccc2[nH]1 [Compound 10],> 50,–
Cc1cc(-c2ccc3[nH]c(=O)nc(-c4ccccc4)c3c2)ccn1 [Compound 5],> 50,fold loss of potency in T. brucei assay (T. brucei; relative to 1): < 3 fold
O=c1nc(-c2ccccc2)c2cc(-c3ccccc3)ccc2[nH]1 [Compound 14],> 50,fold loss of potency in T. brucei assay (T. brucei; relative to 1): ~ 2.5 fold
O=c1nc(-c2ccccc2)c2cc(-c3ccc(F)cc3)ccc2[nH]1 [Compound 17],> 50,EC50 (T. cruzi): < 10 µM
O=c1nc(-c2ccccc2)c2ccc(-c3cncnc3)cc2[nH]1 [Compound 30],> 50,–
Cn1ccc(-c2cccc3[nH]c(=O)nc(-c4ccccc4)c23)n1 [Compound 33],> 50,–
O=c1nc(-c2ccccc2)c2cc(-c3cncnc3)ccc2[nH]1 [Compound 22],> 50,–
N#Cc1ccc(-c2cccc3[nH]c(=O)nc(-c4ccccc4)c23)cc1 [Compound 34],> 50,–
O=c1nc(-c2ccccc2)c2cc(-c3ccc(N4CCOCC4)cc3)ccc2[nH]1 [Compound 21],–,EC50 (T. cruzi): < 10 µM

SMILES,EC50 [1] [µM],other results
O=c1nc(C2CCCCC2)c2cc(-c3cc[nH]n3)ccc2[nH]1 [Compound 41],> 50,–
Cc1ccncc1-c1ccc2[nH]c(=O)nc(-c3ccccc3)c2c1 [Compound 8],> 50,EC50 (T. cruzi): < 10 µM
O=c1nc(-c2ccccc2)c2cc(-c3cccnc3)ccc2[nH]1 [Compound 6],> 50,–
CN1CCN(c2ccc3[nH]c(=O)nc(-c4ccccc4)c3c2)CC1 [Compound 36],> 50,–
O=c1nc(C2CCC2)c2cc(-c3cc[nH]n3)ccc2[nH]1 [Compound 42],> 50,fold loss of potency in T. brucei assay (T. brucei; relative to C4-phenyl analog 24): ~6 fold
COc1ccccc1-c1nc(=O)[nH]c2ccc(-c3cc[nH]n3)cc12 [Compound 40],> 50,–
CN(C)c1ccc(-c2ccc3[nH]c(=O)nc(-c4ccccc4)c3c2)cn1 [Compound 11],> 50,–
Cc1ccccc1-c1nc(=O)[nH]c2ccc(-c3cc[nH]n3)cc12 [Compound 39],> 50,EC50 (T. cruzi): < 10 µM
O=c1nc(-c2ccccc2)c2ccc(-c3cccnc3)cc2[nH]1 [Compound 29],> 50,–
O=c1nc(-c2ccccc2)c2cc(-c3ccc(N4CCCC4)nc3)ccc2[nH]1 [Compound 12],> 50,EC50 (T. cruzi): < 10 µM
O=c1nc(-c2ccccc2)c2cc(-c3cccc(F)c3)ccc2[nH]1 [Compound 16],> 50,EC50 (T. cruzi): < 10 µM
N#Cc1ccc(-c2ccc3[nH]c(=O)nc(-c4ccccc4)c3c2)cc1 [Compound 18],> 50,–
O=c1nc(-c2ccccc2)c2cc(-c3cn[nH]c3)ccc2[nH]1 [Compound 25],–,EC50 (T. cruzi): < 10 µM
Cn1cc(-c2ccc3[nH]c(=O)nc(-c4ccccc4)c3c2)cn1 [Compound 26],> 50,–
Cc1cncc(-c2ccc3[nH]c(=O)nc(-c4ccccc4)c3c2)c1 [Compound 9],> 50,EC50 (T. cruzi): < 10 µM
O=c1nc(-c2ccccc2)c2cc(-c3cnc4ccccc4c3)ccc2[nH]1 [Compound 13],> 50,EC50 (T. cruzi): < 10 µM
O=c1nc(-c2ccccc2)c2ccc(-c3ccncc3)cc2[nH]1 [Compound 28],> 50,–
O=c1nc(-c2ccccc2)c2cc(N3CCNCC3)ccc2[nH]1 [Compound 37],> 25,–
O=c1nc(-c2ccccc2)c2ccc(-c3ccc(F)cc3)cc2[nH]1 [Compound 32],> 50,–
